Literature values in patent US20120263806A1, “Uses of North American Ginseng Fractions for Treating Leukemia” (priority 2007, published 2012).

What was measured:
[1] = test system: Adriamycin (ADM)-resistant P388 leukemia cells (P388/ADM)
[2] = test system: telomerase activity of K562 cells; conditions: at proper concentrations and exposure time

## CC(C)=CCC[C@](C)(O)[C@H]1CC[C@]2(C)[C@@H]1[C@H](O)C[C@@H]1[C@@]3(C)CC[C@H](O)C(C)(C)[C@@H]3[C@@H](O)C[C@]12C [20(8) protopanaxatriol]
[1]
  Cytotoxicity of the anti-cancer drugs (DAU, VBL) in P388/ADM cells: greatly enhanced

## O=P1(N(CCCl)CCCl)NCCCO1 (stereo not shown) [CTX, cyclophosphamide]
[2]
  Telomerase activity of K562 cells: completely inhibit

## CC(C)=CC/C=C(/C)[C@H]1CC[C@]2(C)[C@@H]1[C@H](O)C[C@@H]1[C@@]3(C)CC[C@H](O)C(C)(C)[C@@H]3[C@@H](O)C[C@]12C [Quasipanaxatriol]
[1]
  Cytotoxicity of the anti-cancer drugs (DAU, VBL) in P388/ADM cells: greatly enhanced
[1]; 50 μM
  Resistance indices (ratios of IC50 values for P388/ADM and P388 parental cells) for DAU and VBL: decreased significantly

## CC(C)=CCC[C@](C)(O)[C@H]1CC[C@]2(C)[C@@H]1[C@H](O)C[C@@H]1[C@@]3(C)CC[C@H](O[C@@H]4O[C@H](CO)[C@@H](O)[C@H](O)[C@H]4O[C@@H]4O[C@H](CO)[C@@H](O)[C@H](O)[C@H]4O)C(C)(C)[C@@H]3CC[C@]12C [Rg(3)]
NF-kappaβ
  TPA-induced activation of NF-kappaβ in HL-60 cells: inhibited

## CC(C)=CCC[C@](C)(O[C@@H]1O[C@H](CO)[C@@H](O)[C@H](O)[C@H]1O)[C@H]1CC[C@]2(C)[C@@H]1[C@H](O)C[C@@H]1[C@@]3(C)CC[C@H](O)C(C)(C)[C@@H]3CC[C@]12C [compound K]
[1]
  Cytotoxicity of the anti-cancer drugs (DAU, VBL) in P388/ADM cells: greatly enhanced

## CC(C)=CCC[C@](C)(O)[C@H]1CC[C@]2(C)[C@@H]1[C@H](O)C[C@@H]1[C@@]3(C)CC[C@H](O[C@@H]4O[C@H](CO)[C@@H](O)[C@H](O)[C@H]4O)C(C)(C)[C@@H]3CC[C@]12C [ginsenoside Rh2]
[1]
  Cytotoxicity of the anti-cancer drugs (DAU, VBL) in P388/ADM cells: greatly enhanced
